Experimental findings from patent US6642031B2, “Microorganisms with ability to degrade indole and enzymes therefrom” (Genencor International, Inc., priority 1995, dated 2003) are described below.

“And” between values parts separate entries of the source, which are not always exact repeats. Equal values may be shown once. Read-outs that look alike come from different tables or passages of the source.

The subject of data set [1] is indole oxidase. Put plainly: Cell-free oxygen uptake in WW2 indole-induced cell extract. The format is biochemical, Pseudomonas putida. The following applies: for Oxygen Uptake: 1.82 mg/ml cell extract protein, 1 mM NADH, pH 7.5, corrected for uptake without substrate.
The subject of the next data set is Strain WW2 whole cells. Description: Whole cell oxygen uptake with indole and related substrates (Clark electrode oxygraph). Type of data set: cell-based, Pseudomonas putida. The following applies: for Relative % (oxygen uptake rate) / Oxygen Uptake: substrate 0.6 mM; for Relative % (oxygen uptake rate): indole-dependent rate defined as 100%; for Oxygen Uptake: whole cells 4.5 h after indole induction, corrected for uptake without substrate. The procedure: (§1) Carbon utilization of WW2 was determined by its ability to grow on alternate carbon sources. The bulk of these were determined by Biolog assay. […] In addition, substrate-dependent oxygen consumption of whole resting cells was measured by oxygraph assay as described in Example 11.
(§2) Indole oxidation activity in whole cells was routinely determined by measuring oxygen uptake rates with a Biological Oxygen Monitor (Yellow Springs Instrument Co., model 5300, Ohio) equipped with a Clark electrode. Reactions were carried out in a stirred, 1.5 ml reaction chamber at 25° C. Washed cells of strain WW2 suspended in 50 mM Tris-HCl (pH 7.5) to an A600 of 2.0 were pre-equilibrated at 25° C. before their addition to the reaction chamber. After recording the endogenous oxygen uptake rate, indole or other substrates (100 mM in dimethylformamide) were added to a final concentration of 0.3 to 1 mM. […] Reported rates were corrected for oxygen uptake observed in the absence of substrate. In the case of indoxyl, the reported rate was also corrected for the spontaneous oxygen consumption rate of indoxyl oxidation in the absence of indole-induced cells.

The subject of data set [2] is indole oxidation activity in strain WW2 crude cell extract. Description: Cell-free indole-dependent NAD(P)H oxidation, cofactor requirements (spectrophotometric). Type of data set: biochemical, Pseudomonas putida. The procedure:
Spectrophotometric assavs. Cell-free, indole-dependent NADH oxidation was measured spectrophotometrically with a Hewlett-Packard 8452A diode array spectrophotometer. The reactions (1.0 ml volume) contained crude soluble cytosolic fraction (SCF), 3.0 mM NADH, 2.0 mM indole and 50 mM Tris-HCl (pH 7.5). The reactions were initiated by addition of NADH and the initial rates were corrected for background NADH oxidation rates, which were measured in the absence of indole. NADPH was substituted for NADH to compare its ability to serve as an electron donor for indole oxidation activity.
Cofactor requirement of the indole oxidizing activity in the crude soluble cytosolic fraction was investigated in spectrophotometric assays as described in Example 6.

A further data set concerns Strain WW2. Put plainly: Induction and sustaining of indole oxidation activity in growing cultures (oxygen uptake with indole). The following applies: for Oxygen Uptake Rate, Rate 3 h After Re-Addition: re-addition (indole 0.2 g/l and/or succinate 2 g/l) to 4 h indole-induced cells, measured 7 h after initial induction. The format is cell-based, Pseudomonas putida.
Source text: Several methods were examined to induce cultures of strain Pseudomonas putida WW2 for indole oxidation during growth. These included growing the strain in MSB containing 0.2% succinate with: (i) a single addition of 0.02% indole and 0.2% succinate during late log phase; (ii) indole provided in the vapor phase, during growth, from a small cloth bag containing indole crystals suspended above the surface of the medium; or (iii) both indole vapor during growth and direct addition of 0.02% indole and 0.2% succinate during late log phase.
as §2

The subject of data set [3] is indole oxidase. Description: Substrate depletion assay with cell extract, GC/MS and visible spectrum. Type of data set: biochemical, Pseudomonas putida.
Method: Substrate depletion assays. Substrate depletion assays were carried out in 1.5 ml to 10 ml reactions containing crude SCF, 4.0 mM NADH or NADPH, 2.0 μM FAD, and 1.0 mM indole in 50 mM Tris-HCl (pH 7.5 or 8.0). Substrate and product concentrations were determined by incubating the reactions for the specified period of time with shaking at 250 rpm, extracting 1.0 ml of the aqueous reaction with ethyl acetate and analyzing the extract by gas chromatography-mass spectrometry (GC/MS) described below.
GC/MS was carried out with a Hewlett-Packard model 5890 gas chromatograph equipped with a Hewlett-Packard DB-5 capillary column (inside diameter 0.2 mm by 25 m) and a Hewlett-Packard model 5971 mass selective detector (electron impact ionization 70 eV). The column temperature was programmed from 50 to 325° C. at 10° C./min with a helium flow of 12 cm/s. Temperatures of the injection port and transfer line were 250 and 280° C., respectively.
After indole was completely consumed the reaction mixture was diluted into dimethylformamide (DMF) and the visible spectrum of the resultant blue solution was measured.
The subject of data set [4] is Pseudomonas putida strain WW2. Description: Growth on carbon sources in MSB liquid culture or agar plates. The following applies: for support of growth as carbon source (words): MSB liquid medium or agar plates. The procedure: Cultivation of the organism. Growth was measured turbidimetrically at 600 nm. […] Additional potential carbon sources were assessed in MSB supplemented with the carbon alternate source (0.2% (w/v) unless specified otherwise) or on plates provided with volatile substrates in the vapor phase. Growth was also conducted in 14 L fermenters in the fed batch mode. […] To study enzyme activity of indole oxidase, the organism was cultured in 50 or 500 ml of media (in 250 ml or 2.8 L nominal volume flasks, respectively) containing minimal salts, succinate and 0.02% indole at 30° C. with rotary shaking (200 rpm).
as §1

Where [5] appears, read: substrate 0.3 mM, indole = 100%.

For the compound `COc1ccc2[nH]ccc2c1` [5-MeO-Indole], the “Relative % (oxygen uptake rate)” value in the data set on indole oxidase [1] amounted to 7%. Besides, in the data set on indole oxidase [1] (substrate 0.3 mM), the “Oxygen Uptake” value was 1 O2 %/min/ODU.

For the compound `Fc1ccc2[nH]ccc2c1` [5-F-Indole, 5-fluoroindole], the figures for the “Relative % (oxygen uptake rate)” value with Strain WW2 whole cells and with indole oxidase [1] (setting [5]) were 50% and 93%, respectively. Besides, the “Oxygen Uptake” value in the data set on Strain WW2 whole cells is listed as 5.9 O2 %/min/ODU; in the data set on indole oxidase [1] (substrate 0.3 mM), 13.5 O2 %/min/ODU.

`O=S(=O)([O-])[O-].O=S(=O)([O-])[O-].[Fe+2].[NH4+].[NH4+]` [Fe^++, Fe(NH4)2SO4]: the “effect of added cofactor on activity” value in data set [2] is reported as “stimulatory effect”.

On to `O=C(O)CCC(=O)O` [Succinate], for which the “Oxygen Uptake Rate, Rate 3 h After Re-Addition” value with Strain WW2 is reported as 1.8 O2 %/min/ODU.

Consider `NC(=O)C1=CN([C@@H]2O[C@H](COP(=O)(O)OP(=O)(O)OC[C@H]3O[C@@H](n4cnc5c(N)ncnc54)[C@H](OP(=O)(O)O)[C@@H]3O)[C@@H](O)[C@H]2O)C=CC1` [NADPH, nicotinamide adenine phosphate dinucleotide], for which the “rate of indole removal relative to that observed with NADH” value in the data set with indole oxidase [3] (4.0 mM NADPH instead of NADH, cell extract 0.57 mg/ml, pH 8) was “approximately 60%”.

Regarding `O=C1Nc2ccccc2C1=O` [Isatin, 2,3-dioxoindole], the “Oxygen Uptake” value in the data set on indole oxidase [1] (substrate 0.3 mM) came to 0 O2 %/min/ODU. Besides, the “Relative % (oxygen uptake rate)” value in the data set with indole oxidase [1] (setting [5]) is given as 0%.

Consider `Clc1cccc2[nH]ccc12` [4-Cl-Indole], for which the “Oxygen Uptake” value in the data set on indole oxidase [1] (substrate 0.3 mM) is listed as 0 O2 %/min/ODU. For the same compound, the “Relative % (oxygen uptake rate)” value in the data set on indole oxidase [1] (setting [5]) is on record as 0%.

With `Cc1cccc2cc[nH]c12` [7-Me-Indole], the “Relative % (oxygen uptake rate)” value with Strain WW2 whole cells is listed as 39%; in the data set with indole oxidase [1] (setting [5]), 86%. Also, the entries for the “Oxygen Uptake” value in the data set on Strain WW2 whole cells and in the data set on indole oxidase [1] (substrate 0.3 mM) were 4.6 O2 %/min/ODU and 12.5 O2 %/min/ODU, respectively.

`c1ccc2ccccc2c1` [Naphthalene]: the “Relative % (oxygen uptake rate)” value in the data set on Strain WW2 whole cells and with Strain WW2 whole cells (listed as naphthalene) was 9% each time. In addition, the “Oxygen Uptake” value with Strain WW2 whole cells was determined as 1.1 O2 %/min/ODU. For the same compound, the “support of growth as carbon source (words)” value was “did not support growth” in data set [4] and “not to support growth” in data set [4] (listed as naphthalene). Further, the “activity of the enzyme with the substrate” value in the data set on indole oxidase [1] is recorded as “very low activity”.

Take `Brc1ccc2[nH]ccc2c1` [5-Br-Indole]: the “Oxygen Uptake” value with indole oxidase [1] (substrate 0.3 mM) stood at 0 O2 %/min/ODU. Moreover, in the data set with indole oxidase [1] (setting [5]), the “Relative % (oxygen uptake rate)” value came to 0%.

On to `Cc1cccc2[nH]ccc12` [4-Me-Indole], for which the “Oxygen Uptake” value in the data set with indole oxidase [1] (substrate 0.3 mM) amounted to 1 O2 %/min/ODU. In the data set on indole oxidase [1] (setting [5]), the “Relative % (oxygen uptake rate)” value was determined as 7%.

As to `c1ccc2occc2c1` [2,3-Benzofuran], the “Relative % (oxygen uptake rate)” value in the data set on Strain WW2 whole cells came out at 30%; in the data set with indole oxidase [1] (setting [5]), 0%. Besides, the results for the “Oxygen Uptake” value in the data set on Strain WW2 whole cells and with indole oxidase [1] (substrate 0.3 mM) were 3.5 O2 %/min/ODU and 0 O2 %/min/ODU, respectively.

For `Oc1cccc2[nH]ccc12` [4-OH-Indole], the “Relative % (oxygen uptake rate)” value with indole oxidase [1] is recorded as 17%. For the same compound, the “Oxygen Uptake” value in the data set with indole oxidase [1] (substrate 0.3 mM) turned out to be 2.5 O2 %/min/ODU.

On to `Oc1ccc2[nH]ccc2c1` [5-OH-Indole], for which the “Oxygen Uptake” value in the data set with indole oxidase [1] (substrate 0.3 mM) worked out at 3.5 O2 %/min/ODU. Also, the “Relative % (oxygen uptake rate)” value with indole oxidase [1] (setting [5]) was determined as 24%.

On to `Clc1ccc2[nH]ccc2c1` [5-Cl-Indole], for which the “Oxygen Uptake” value in the data set on indole oxidase [1] (substrate 0.3 mM) stood at 4 O2 %/min/ODU. Also, the “Relative % (oxygen uptake rate)” value in the data set with indole oxidase [1] (setting [5]) worked out at 28%.

In the case of `Oc1c[nH]c2ccccc12` [Indoxyl, 3-hydroxyindole], in the data set on Strain WW2 whole cells (relative to indole), the “increase in oxygen uptake rate” value turned out to be 1.7 fold. Also, in the data set with Strain WW2 whole cells, the “Relative % (oxygen uptake rate)” value turned out to be 177% and the “Oxygen Uptake” value turned out to be 20.9 O2 %/min/ODU.

`Cc1cc2nc3c(=O)[nH]c(=O)nc-3n(C[C@H](O)[C@H](O)[C@H](O)COP(=O)(O)O)c2cc1C` [FMN]: in data set [2], the “effect of added cofactor on activity” value is given as “no effect”.

On to `c1ccc2[nH]ccc2c1` [Indole], for which the “Relative % (oxygen uptake rate)” value in the data set on Strain WW2 whole cells and in the data set on indole oxidase [1] (setting [5]) was 100% throughout. For the same compound, the “Oxygen Uptake” value in the data set with Strain WW2 whole cells was 11.8 O2 %/min/ODU; with indole oxidase [1] (substrate 0.3 mM) it was 14.5 O2 %/min/ODU. In addition, the “support of growth as carbon source (words)” value in data set [4] is on record as “good carbon source”. Also, the “concentration above which toxic” value in data set [4] (liquid culture) is reported as “exceeded 400 mg/L”. In addition, the “Oxygen Uptake Rate, Rate After 4 h Induction with Indole” value with Strain WW2 (induced with indole 0.2 g/l at 16 h growth, before re-addition) was 14.4 O2 %/min/ODU and 13.3 O2 %/min/ODU and 14.1 O2 %/min/ODU and 12.1 O2 %/min/ODU. The “Oxygen Uptake Rate, Rate 3 h After Re-Addition” value in the data set with Strain WW2 is given as 13.8 O2 %/min/ODU. Besides, the “conversion of indole to indigo” value in the data set with indole oxidase [3] (4.0 mM NADPH as electron donor, from absorption at 610 nm in DMF) is on record as 20%.

As for `Nc1ccccc1C(=O)O` [Anthranilate, Anthranilic acid], in the data set with Strain WW2 whole cells, the “Relative % (oxygen uptake rate)” value is reported as below 1% and the “Oxygen Uptake” value worked out at 0.6 O2 %/min/ODU. Moreover, the “stimulation of oxygen uptake rate” value in the data set on Strain WW2 whole cells (whole resting cells) was “no significant stimulation”.

Take `Cc1c[nH]c2ccccc12` [3-Me-Indole]: in the data set with indole oxidase [1] (substrate 0.3 mM), the “Oxygen Uptake” value came to 2 O2 %/min/ODU. Also, the “Relative % (oxygen uptake rate)” value in the data set with indole oxidase [1] (setting [5]) is on record as 14%.

`O=[N+]([O-])c1ccc2[nH]ccc2c1` [5-NO2-Indole]: in the data set on indole oxidase [1] (substrate 0.3 mM), the “Oxygen Uptake” value came out at 0 O2 %/min/ODU. The “Relative % (oxygen uptake rate)” value with indole oxidase [1] (setting [5]) was 0%.

In the case of `Clc1ccc2cc[nH]c2c1` [6-Cl-Indole], the “Oxygen Uptake” value with indole oxidase [1] (substrate 0.3 mM) is on record as 7 O2 %/min/ODU. Moreover, the “Relative % (oxygen uptake rate)” value in the data set on indole oxidase [1] (setting [5]) turned out to be 48%.

For the compound `Cc1cc2nc3c(=O)[nH]c(=O)nc-3n(C[C@H](O)[C@H](O)[C@H](O)COP(=O)(O)OP(=O)(O)OC[C@H]3O[C@@H](n4cnc5c(N)ncnc54)[C@H](O)[C@@H]3O)c2cc1C` [FAD, flavin adenine dinucleotide], the “stimulation of activity by cofactor added to the assay” value in data set [2] came out at 3 fold.

In the case of `c1ccc2sccc2c1` [Thianaphthene], the “Relative % (oxygen uptake rate)” value with Strain WW2 whole cells amounted to 26%; with indole oxidase [1] (setting [5]), 7%. The “Oxygen Uptake” value turned out to be 3.1 O2 %/min/ODU with Strain WW2 whole cells and 1 O2 %/min/ODU in the data set on indole oxidase [1] (substrate 0.3 mM).

Regarding `C1=Cc2ccccc2C1` [indene], in the data set with indole oxidase [3] (crude SCF with NADPH, GC/MS), the “2-indanone, single detectable product, share of total ion current” value is “approximately 20%”.
